One may read the EC50 as the midpoint of the concentration-response curve. Low readings indicate higher potency in that assay, high ones lower potency in that assay.

The assay concerns Bmi-1 protein. The assay can be described thus: Sandwich ELISA Assay (Bmi-1 protein level in HT-1080 cells). In kind it is cell-based. Here is the method:
Cell Seeding and Compound Treatment (Day 1):
HT-1080 cells were seeded at 8000 cells/well (50 μL) in 96-well tissue culture plates. After the cells became adherent (3-4 hours), 2× diluted stocks of test compounds in 50 μL DMEM containing 1% DMSO (final DMSO concentration was 0.5%) were added and the plates were incubated at 37° C. under 5% CO2 for 40-48 hours.
ELISA Plate First Antibody Preparation (Day 2):
The First Antibody (Millipore Mouse, monoclonal to mouse Bmi-1, clone F6, catalog #05-637) diluted to 2 μg/mL in PBS was added (100 μL) to each well of a Nunc MaxiSorp 96-well ELISA plate. The plate was covered with a plate seal and allowed to stand overnight.
Cell Lysate Preparation (Day 3):
Fresh Lysis buffer (1×) was prepared on the day of the assay as follows: 1 mM EDTA, 150 mM NaCl, 0.5% Triton-X 100, 10 mM NaF, 20 mM B-Glycerophosphate, 1 mM DTT (in PBS, pH 7.2-7.4) and HALT protease inhibitor cocktail (1×) (Pierce #78410).
Lysis Buffer (1×, 40 μL) was added to each well and the plate was shaken for 5-10 minutes on an orbital shaker to allow cell lysis, then diluent (1% BSA in PBS in 0.5% NP40) (100 μL) was added to each well.
A standard curve was prepared at the following Bmi-1 concentrations: 8000, 4000, 2000, 1000, 500, 250, 125 and 0 pg/mL. The Bmi-1 Recombinant Protein Standard (Novus Biologicals PCGF4 Recombinant Protein (P01), catalog # H00000648-P01) used to prepare the standard curve was stored at −80° C. On first thaw, the Recombinant Protein Standard was diluted to 10 μg/μL in Blocking Buffer (1% BSA in PBS; BSA: Fisher Scientific Catalog #1600-100). Aliquots were taken and refrozen at −80° C. The aliquots may be kept at 4° C. and reused after first thaw, but only within 1-2 weeks. The Recombinant Protein Standard contains a GST-fusion tag that appears at approximately 70 Kda on Western Blot.
The prepared ELISA plate was washed 3× with Wash Buffer (0.05% Tween-20 in PBS). The final wash was removed from the plate and the plate was blotted dry. Blocking Buffer (300 μL) (1% BSA in PBS) was added to each well. The plate was covered with a plate seal and incubated at room temperature for 1 hour. The blocked plate was washed 3× with Wash Buffer, then the final wash was removed and the plate was blotted dry. The previously prepared samples and standards were added (100 μL/well) and the plate was covered with a plate seal and incubated at 4° C. overnight.
The prepared ELISA plate was removed from incubation and allowed to stand at room temperature for 30 minutes, then washed and blotted dry. The Second Antibody (Cell Signaling Rabbit anti-Bmi-1, Cat#2830) diluted to 1:600 in Blocking Buffer was added (100 μL) to each well, except as needed for background control wells. The plate was covered with a plate seal and incubated for 1.5 hrs at room temperature.
The ELISA plate was washed and blotted dry as previously described. The Third Antibody (Cell Signaling HRP conjugated anti-rabbit IgG (CellSignaling, Cat#:7074) diluted to 1:300 in Blocking Buffer was added (100 μL) to each well, except as needed for background control wells. The plate was incubated for 1 hr at room temperature.
The plate was washed and blotted dry, then a previously prepared TMB substrate (TMB substrate kit, Pierce catalog #34021) (prepared by mixing kit reagents 1:1) (100 μL) was added per well. The plate was incubated for 20-30 minutes at room temperature in the dark, then Stop Solution (2 M sulfuric acid in water) (50 μL) was added per well. The plates were read at OD450 (experimental) and OD570 (reference).
For orientation: ELISA stands for enzyme-linked immunosorbent assay.

Consider `Cc1nc2ccc(F)cc2n1-c1cc(N)nc(Nc2ccc(OC(F)F)c(F)c2)n1` [Cpd 10, N^2-[4-(difluoromethoxy)-3-fluorophenyl]-6-(6-fluoro-2-methyl-1H-benzimidazol-1-yl)pyrimidine-2,4-diamine], for which the EC50 was in the range of 10 to 100 nM.

For `Cc1nc2ccccc2n1-c1cc(Cl)nc(Nc2ccc(C(F)(F)F)c(F)c2)n1` [Cpd 8, 4-chloro-N-[3-fluoro-4-(trifluoromethyl)phenyl]-6-(2-methyl-1H-benzimidazol-1-yl)pyrimidin-2-amine], the EC50 lay in the range of 100 to 3000 nM. Compound `Nc1cc(-n2c(C3CC3)nc3cc(Cl)ccc32)nc(Nc2ccc(C(F)(F)F)cc2)n1` [Cpd 86, 6-(5-chloro-2-cyclopropyl-1H-benzimidazol-1-yl)-N^2-[4-(trifluoromethyl)phenyl]pyrimidine-2,4-diamine] yielded an EC50 of 100 to 3000 nM. Under `Cc1nc2cc(F)c(F)cc2n1-c1cc(N)nc(Nc2ccc(Cl)cc2)n1` [Cpd 182, N^2-(4-chlorophenyl)-6-(5,6-difluoro-2-methyl-1H-benzimidazol-1-yl)pyrimidine-2,4-diamine] stands 10 to 100 nM.

In the case of `Cc1nn(C)c(C)c1-c1cc(N)nc(Nc2ccc(C(F)(F)F)cc2)n1` [Cpd 3, N^2-[4-(trifluoromethyl)phenyl]-6-(1,3,5-trimethyl-1H-pyrazol-4-yl)pyrimidine-2,4-diamine], the EC50 lay in the range of 1 to 10 nM. For the compound `CCc1nc2ccc(F)cc2n1-c1cc(N)[n+]([O-])c(Nc2ccc(C(F)(F)F)cc2)n1` [Cpd 119, 6-(2-ethyl-6-fluoro-1H-benzimidazol-1-yl)-N^2-[4-(trifluoromethyl)phenyl]pyrimidine-2,4-diamine 3-oxide], the concentration for a half-maximal effect (EC50) was 100 to 3000 nM. Then `Cc1nc2cc(F)ccc2n1-c1cc(N)nc(Nc2ccc(C(F)(F)F)nc2)n1` [Cpd 39, 6-(5-fluoro-2-methyl-1H-benzimidazol-1-yl)-N^2-[6-(trifluoromethyl)pyridin-3-yl]pyrimidine-2,4-diamine], with 10 to 100 nM; and `Cc1nc2ccc(F)cc2n1-c1cc(N)nc(Nc2ccc(C(F)(F)F)cc2)n1` [Cpd 4, 6-(6-fluoro-2-methyl-1H-benzimidazol-1-yl)-N^2-[4-(trifluoromethyl)phenyl]pyrimidine-2,4-diamine], with 10 to 100 nM. The compound `Nc1cc(-n2c(C3CC3)nc3ccc(Cl)cc32)nc(Nc2ccc(C(F)(F)F)cc2)n1` [Cpd 87, 6-(6-chloro-2-cyclopropyl-1H-benzimidazol-1-yl)-N^2-[4-(trifluoromethyl)phenyl]pyrimidine-2,4-diamine] yielded a concentration for a half-maximal effect (EC50) of 10 to 100 nM.

Regarding `Cc1nc2cc(F)c(F)cc2n1-c1cc(NCCO)nc(Nc2ccc(C(F)(F)F)cc2)n1` [Cpd 21, 2-{[6-(5,6-difluoro-2-methyl-1H-benzimidazol-1-yl)-2-{[4-(trifluoromethyl)phenyl]amino}pyrimidin-4-yl]amino}ethanol], the EC50 is 100 to 3000 nM. `CCc1nc2cc(F)c(F)cc2n1-c1cc(N)nc(Nc2ccc(OC(F)F)cc2)n1` [Cpd 76, N^2-[4-(difluoromethoxy)phenyl]-6-(2-ethyl-5,6-difluoro-1H-benzimidazol-1-yl)pyrimidine-2,4-diamine] showed an EC50 of 10 to 100 nM. `Cc1nn2ccccc2c1-c1cc(N)nc(Nc2ccc(C(F)(F)F)cc2)n1` [Cpd 82, 6-(2-methylpyrazolo[1,5-a]pyridin-3-yl)-N^2-[4-(trifluoromethyl)phenyl]pyrimidine-2,4-diamine]: the EC50 lay in the range of 10 to 100 nM. Compound `Cc1nc2ccc(F)cc2n1-c1cc(N)[n+]([O-])c(Nc2ccc(C(F)(F)F)cc2)n1` [Cpd 112, 6-(6-fluoro-2-methyl-1H-benzimidazol-1-yl)-N^2-[4-(trifluoromethyl)phenyl]pyrimidine-2,4-diamine 3-oxide] yielded an EC50 of 100 to 3000 nM. `Cc1nc2cc(F)ccc2n1-c1cc(N)nc(Nc2ccc(C(F)(F)F)cc2)n1` [Cpd 102, 6-(5-fluoro-2-methyl-1H-benzimidazol-1-yl)-N^2-[4-(trifluoromethyl)phenyl]pyrimidine-2,4-diamine] registered an EC50 of 10 to 100 nM.

In the case of `Nc1cc(-n2c(C3CC3)nc3ccccc32)nc(Nc2ccc(OC(F)F)cc2)n1` [Cpd 85, 6-(2-cyclopropyl-1H-benzimidazol-1-yl)-N^2-[4-(difluoromethoxy)phenyl]pyrimidine-2,4-diamine], the EC50 is 10 to 100 nM. Under `CCc1nc2ccccc2n1-c1cc(N)[n+]([O-])c(Nc2ccc(C(F)(F)F)cc2)n1` [Cpd 118, 6-(2-ethyl-1H-benzimidazol-1-yl)-N^2-[4-(trifluoromethyl)phenyl]pyrimidine-2,4-diamine 3-oxide] stands 100 to 3000 nM. Then `Cc1nc2ncccc2n1-c1nc(Nc2ccc(C(F)(F)F)cc2)nc(N)c1F` [Cpd 62, 5-fluoro-6-(2-methyl-1H-imidazo[4,5-b]pyridin-1-yl)-N^2-[4-(trifluoromethyl)phenyl]pyrimidine-2,4-diamine], with 100 to 3000 nM; and `Cc1nc2ncc(Cl)cc2n1-c1cc(N)nc(Nc2ccc(C(F)(F)F)cc2)n1` [Cpd 31, 6-(6-chloro-2-methyl-1H-imidazo[4,5-b]pyridin-1-yl)-N^2-[4-(trifluoromethyl)phenyl]pyrimidine-2,4-diamine], with 1 to 10 nM; and `Nc1cc(-n2c(C3CC3)nc3ccc(F)cc32)nc(Nc2ccc(C(F)(F)F)cc2)n1` [Cpd 27, 6-(2-cyclopropyl-6-fluoro-1H-benzimidazol-1-yl)-N^2-[4-(trifluoromethyl)phenyl]pyrimidine-2,4-diamine], with 10 to 100 nM. In turn, `Cc1nc2ccccc2n1-c1cc(Cl)nc(Nc2ccc(C(F)(F)F)cc2)n1` [Cpd 6, 4-chloro-6-(2-methyl-1H-benzimidazol-1-yl)-N-[4-(trifluoromethyl)phenyl]pyrimidin-2-amine] yielded an EC50 of 100 to 3000 nM. Compound `Cc1nc2c(F)cc(F)cc2n1-c1cc(N)nc(Nc2ccc(OC(F)F)cc2)n1` [Cpd 60, N^2-[4-(difluoromethoxy)phenyl]-6-(4,6-difluoro-2-methyl-1H-benzimidazol-1-yl)pyrimidine-2,4-diamine] showed an EC50 of 10 to 100 nM. As for `Cc1ccc(Nc2nc(N)cc(-n3c(C)nc4cc(C)c(C)cc43)n2)cc1` [Cpd 183, N^2-(4-methylphenyl)-6-(2,5,6-trimethyl-1H-benzimidazol-1-yl)pyrimidine-2,4-diamine], the EC50 was 10 to 100 nM. Regarding `Cc1nc2ccccc2n1-c1cc(N)nc(Nc2ccc(OC(F)F)c(F)c2)n1` [Cpd 14, N^2-[4-(difluoromethoxy)-3-fluorophenyl]-6-(2-methyl-1H-benzimidazol-1-yl)pyrimidine-2,4-diamine], the EC50 is 10 to 100 nM. Under `CCc1nc2ccc(F)cc2n1-c1cc(N)nc(Nc2ccc(C(F)(F)F)nc2)n1` [Cpd 44, 6-(2-ethyl-6-fluoro-1H-benzimidazol-1-yl)-N^2-[6-(trifluoromethyl)pyridin-3-yl]pyrimidine-2,4-diamine] stands 10 to 100 nM.

In the case of `Cc1nc2ncc(F)cn2c1-c1cc(N)nc(Nc2ccc(C(F)(F)F)cc2)n1` [Cpd 48, 6-(6-fluoro-2-methylimidazo[1,2-a]pyrimidin-3-yl)-N^2-[4-(trifluoromethyl)phenyl]pyrimidine-2,4-diamine], the EC50 was 10 to 100 nM. Compound `CCc1nc2ccccc2n1-c1cc(N)nc(Nc2ccc(OC(F)F)cc2)n1` [Cpd 84, N^2-[4-(difluoromethoxy)phenyl]-6-(2-ethyl-1H-benzimidazol-1-yl)pyrimidine-2,4-diamine] registered an EC50 of 10 to 100 nM.

The values are drawn from patent US10370371B2, “Substituted pyrimidine Bmi-1 inhibitors” (PTC Therapeutics, Inc., priority 2013, dated 2019).
